Data reported in patent US12187773B2, “Modified GIP peptide analogues” (Antag Therapeutics ApS, priority 2018, dated 2025).
*1 amine or outer side, *2 acyl side, *3 side chain or, on linkers, in order; H or OH if unused. Where a SMILES comes first, the peptide text is derived from it. Side-chain parts run from the residue outwards. [ ]: non-standard residue; d: D form. The star is where a group is joined. C18 diacid = O=C(O)CCCCCCCCCCCCCCCCC(=O)*; C16 diacid = O=C(O)CCCCCCCCCCCCCCC(=O)*; γGlu = O=C(O)[C@H](CCC(=O)[*:2])N[*:1]; pGlu = O=C1CC[C@@H](C(=O)O)N1; AEEA = NCCOCCOCC(=O)O

Tests used:
Format in all cases: cell-based
human GIP receptor [1] = molecular target: T1, human GIP receptor (Homo sapiens, UniProt P48546); test: cAMP accumulation, antagonism (DiscoveRx HitHunter cAMP XS assay); design: host or cells: COS-7 (transient, calcium phosphate; pCMV-Script vector); settings: for cAMP antagonism, % inhib / GIPR, Antagonism, % inhib: COS-7 cells; for cAMP antagonism, % inhib: % inhibition of Emax; for GIPR, Antagonism, % inhib: Table 3A/3B
T1 sequence (P48546 22-466): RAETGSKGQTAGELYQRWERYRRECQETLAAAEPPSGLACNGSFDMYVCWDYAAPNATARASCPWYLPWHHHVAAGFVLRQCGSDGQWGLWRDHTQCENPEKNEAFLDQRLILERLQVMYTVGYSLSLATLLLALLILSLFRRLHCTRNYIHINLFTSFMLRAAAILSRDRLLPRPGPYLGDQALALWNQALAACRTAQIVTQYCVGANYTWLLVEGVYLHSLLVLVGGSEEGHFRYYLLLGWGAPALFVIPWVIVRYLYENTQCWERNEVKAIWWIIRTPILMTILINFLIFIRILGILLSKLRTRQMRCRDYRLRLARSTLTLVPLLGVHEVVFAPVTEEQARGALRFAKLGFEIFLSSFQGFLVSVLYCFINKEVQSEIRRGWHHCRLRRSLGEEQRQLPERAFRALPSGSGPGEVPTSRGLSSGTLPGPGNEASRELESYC
Outline: (§1)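 cAMP accumulation measured by HitHunter cAMP XS in COS-7 cells transiently expressing human GIP receptor, after 30 min in HBS with 1 mM IBMX at 37 °C. Antagonists preincubated 10 min before GIP giving 50-80% of maximum, then 20 min more; agonist mode used 30 min ligand exposure.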

human GIP receptor [2] = molecular target: T1, human GIP receptor; test: cAMP accumulation, agonism (DiscoveRx HitHunter cAMP XS assay); design: host or cells: COS-7 (transient, calcium phosphate; pCMV-Script vector); settings: Table 1B; DiscoveRx; COS-7 cells
Outline: as §1

GLP2 receptor (GLP2R) = molecular target: T2, GLP2 receptor (GLP2R) (Homo sapiens, UniProt O95838); test: cAMP assay - selectivity, antagonism at GLP2 receptor; settings: Table 3B; COS-7 cells; agonist GLP2
T2 construct: expressed in transfected cells; host or cells: COS-7 (transient)
T2 sequence (O95838 1-553): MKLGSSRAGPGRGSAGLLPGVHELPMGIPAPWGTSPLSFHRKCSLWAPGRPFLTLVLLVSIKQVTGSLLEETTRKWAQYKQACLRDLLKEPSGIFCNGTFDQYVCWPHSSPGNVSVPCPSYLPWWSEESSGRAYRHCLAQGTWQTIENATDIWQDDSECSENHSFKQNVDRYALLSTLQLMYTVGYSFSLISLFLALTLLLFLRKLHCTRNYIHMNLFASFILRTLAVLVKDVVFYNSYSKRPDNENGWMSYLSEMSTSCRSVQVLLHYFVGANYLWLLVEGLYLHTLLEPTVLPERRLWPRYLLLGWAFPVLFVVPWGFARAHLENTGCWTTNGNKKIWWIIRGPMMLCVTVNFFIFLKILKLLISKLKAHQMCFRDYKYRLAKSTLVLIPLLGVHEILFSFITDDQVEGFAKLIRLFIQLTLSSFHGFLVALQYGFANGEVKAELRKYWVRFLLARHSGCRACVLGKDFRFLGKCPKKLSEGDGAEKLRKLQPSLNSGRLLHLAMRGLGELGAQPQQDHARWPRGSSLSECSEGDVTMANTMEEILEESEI
Protocol: (§2) Transient transfected COS-7 cells expressing the either of the GLP1 receptor (GLP1R), GLP2 receptor (GLP2R), glucagon receptor (GcgR) or secretin receptor (SCTR) were seeded in white 96-well plates with a density of 3.5*10^4/well. The day after, the cells were washed twice with Hepes buffered saline (HBS) buffer and incubated with HBS and 1 mM 3-isobutyl-1-methylxanthine (IBMX) for 30 min at 37° C. To test for agonistic properties, ligands were added and incubated for 30 min at 37° C. In order to test for antagonistic properties, the cells were preincubated with the antagonists for 10 min prior to the addition the natural agonist for the expressed receptor (GLP1 for GLP1R expressing cells, GLP2 for GLP2R expressing cells, glucagon for the GcgR and secretin for the SCTR) and subsequent incubated for 20 additional min. […] The HitHunter™ cAMP XS assay (DiscoveRx) was carried out according to the manufacturer's instructions.

human GIP receptor [3] = molecular target: T1, human GIP receptor; test: cAMP agonism (CisBio cAMP Dynamic 2 HTRF assay); settings: HEK293, read-out: cAMP agonism, % Efficacy, Table 1C, HEK-293 cells
Protocol: To test for agonistic properties at the GIP receptor, compounds were diluted and added to cells as described above and incubated for 30 min at 37° C. The resulting increase in intracellular cAMP was determined using the CisBio cAMP Dynamic 2 HTRF Assay Kit as described above.

GLP1 receptor (GLP1R) = molecular target: T3, GLP1 receptor (GLP1R) (Homo sapiens, UniProt P43220); test: cAMP assay - selectivity, antagonism at GLP1 receptor; settings: Table 3A; COS-7 cells; agonist GLP1 at 50-80% of maximal cAMP
T3 construct: expressed in transfected cells; host or cells: COS-7 (transient)
T3 sequence (P43220 24-463, species assumed): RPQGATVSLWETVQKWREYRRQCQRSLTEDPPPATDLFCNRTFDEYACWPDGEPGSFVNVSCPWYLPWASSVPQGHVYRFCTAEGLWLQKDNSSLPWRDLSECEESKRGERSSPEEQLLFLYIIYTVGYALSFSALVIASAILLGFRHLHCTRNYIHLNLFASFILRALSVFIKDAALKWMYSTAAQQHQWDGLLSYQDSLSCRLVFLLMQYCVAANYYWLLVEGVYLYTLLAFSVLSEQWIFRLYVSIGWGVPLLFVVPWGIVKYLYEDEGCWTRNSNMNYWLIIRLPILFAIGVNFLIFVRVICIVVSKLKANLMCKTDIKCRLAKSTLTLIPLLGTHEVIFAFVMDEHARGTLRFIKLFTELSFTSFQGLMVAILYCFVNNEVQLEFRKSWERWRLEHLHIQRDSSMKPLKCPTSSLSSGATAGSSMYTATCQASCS
Protocol: as §2

glucagon receptor (GcgR) = molecular target: T4, glucagon receptor (GcgR) (Homo sapiens, UniProt P47871); test: cAMP assay - selectivity, antagonism at glucagon receptor; settings: Table 3A; COS-7 cells; agonist glucagon at 50-80% of maximal cAMP
T4 construct: expressed in transfected cells; host or cells: COS-7 (transient)
T4 sequence (P47871 26-477, species assumed): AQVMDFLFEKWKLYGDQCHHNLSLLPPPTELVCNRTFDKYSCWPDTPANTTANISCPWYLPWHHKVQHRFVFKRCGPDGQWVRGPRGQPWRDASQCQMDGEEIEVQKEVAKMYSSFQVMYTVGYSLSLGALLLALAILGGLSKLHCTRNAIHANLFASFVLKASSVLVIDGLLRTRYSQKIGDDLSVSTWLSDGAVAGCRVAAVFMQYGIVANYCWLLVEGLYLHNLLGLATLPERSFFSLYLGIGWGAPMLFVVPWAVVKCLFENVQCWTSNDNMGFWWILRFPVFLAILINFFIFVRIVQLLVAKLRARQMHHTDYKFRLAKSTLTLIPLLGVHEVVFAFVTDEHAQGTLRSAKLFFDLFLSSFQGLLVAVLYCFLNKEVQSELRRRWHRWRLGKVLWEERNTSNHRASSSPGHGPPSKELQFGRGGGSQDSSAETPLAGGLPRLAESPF
Protocol: as §2

[4] = IC50-value (GIPR antagonism), Examples 1 and 2, values of Tables 1B and 2
[5] = cAMP antagonism, nM (IC50), Table 1B, DiscoveRx, transiently transfected COS-7 cells

Row | Structure (SMILES) | IC50 (human GIP receptor [1]; [4]) | cAMP antagonism, % inhib (human GIP receptor [1]; Table 1B, DiscoveRx) | GIPR, Antagonism, % inhib (human GIP receptor [1]; DiscoveRx) | IC50 (human GIP receptor [1]; [5]) | cAMP agonism, Emax (human GIP receptor [2]) | GLP-2R, Antagonism (GLP2 receptor (GLP2R)) | Emax (human GIP receptor [3]) | GLP-1R, Antagonism, nM (GLP1 receptor (GLP1R)) | Glucagon R, Antagonism, nM (glucagon receptor (GcgR))
1 | CC[C@H](C)[C@H](NC(=O)[C@H](CO)NC(=O)[C@H](Cc1ccc(O)cc1)NC(=O)[C@H](CC(=O)O)NC(=O)[C@H](CO)NC(=O)[C@@H](NC(=O)[C@H](Cc1ccccc1)NC(=O)[C@@H](NC(=O)CNC(=O)[C@@H](N)CO)[C@@H](C)O)[C@@H](C)CC)C(=O)N[C@@H](C)C(=O)N[C@@H](CCSC)C(=O)N[C@@H](CC(=O)O)C(=O)N[C@@H](CCCNC(=N)N)C(=O)N[C@H](C(=O)N[C@@H](CCCCNC(=O)COCCOCCNC(=O)COCCOCCNC(=O)CC[C@H](NC(=O)CCCCCCCCCCCCCCCCC(=O)O)C(=O)O)C(=O)N[C@@H](CCC(N)=O)C(=O)N[C@@H](CCC(N)=O)C(=O)N[C@@H](CC(=O)O)C(=O)N[C@@H](Cc1ccccc1)C(=O)N[C@H](C(=O)N[C@@H](CC(N)=O)C(=O)N[C@@H](Cc1c[nH]c2ccccc12)C(=O)N[C@@H](CC(C)C)C(=O)N[C@@H](CC(C)C)C(=O)N[C@@H](C)C(=O)N[C@@H](CCC(N)=O)C(=O)N[C@@H](CCCNC(=N)N)C(N)=O)C(C)C)[C@@H](C)CC [AT384] (H-SGTFISDYSIAMDRIK([AEEA-AEEA-γGlu-C18 diacid])QQDFVNWLLAQR-NH2; N-terminus assumed) | 8 nM | 100% | 100.0% | 8 nM | No Agonism | No antagonism | 0% | No antagonism | No antagonism
2 | CC[C@H](C)[C@H](NC(=O)[C@H](CO)NC(=O)[C@H](Cc1ccc(O)cc1)NC(=O)[C@H](CC(=O)O)NC(=O)[C@H](CO)NC(=O)[C@@H](NC(=O)[C@H](Cc1ccccc1)NC(=O)[C@@H](NC(=O)CNC(=O)[C@@H](N)CO)[C@@H](C)O)[C@@H](C)CC)C(=O)N[C@@H](C)C(=O)N[C@@H](CCSC)C(=O)N[C@@H](CC(=O)O)C(=O)N[C@@H](CCCNC(=N)N)C(=O)N[C@H](C(=O)N[C@@H](CCCCNC(=O)CCCCCCCCCCCCCCCCC(=O)O)C(=O)N[C@@H](CCC(N)=O)C(=O)N[C@@H](CCC(N)=O)C(=O)N[C@@H](CC(=O)O)C(=O)N[C@@H](Cc1ccccc1)C(=O)N[C@H](C(=O)N[C@@H](CC(N)=O)C(=O)N[C@@H](Cc1c[nH]c2ccccc12)C(=O)N[C@@H](CC(C)C)C(=O)N[C@@H](CC(C)C)C(=O)N[C@@H](C)C(=O)N[C@@H](CCC(N)=O)C(=O)N[C@@H](CCCNC(=N)N)C(N)=O)C(C)C)[C@@H](C)CC [AT393] (H-SGTFISDYSIAMDRIK(C18 diacid)QQDFVNWLLAQR-NH2; N-terminus assumed) | 1 nM | 100% | 100.0% | 1 nM | No Agonism | No antagonism | 6% | No antagonism | No antagonism
3 | CC[C@H](C)[C@H](NC(=O)[C@H](CO)NC(=O)[C@H](Cc1ccc(O)cc1)NC(=O)[C@H](CC(=O)O)NC(=O)[C@H](CO)NC(=O)[C@@H](NC(=O)[C@H](Cc1ccccc1)NC(=O)[C@@H](NC(=O)CNC(=O)[C@@H](N)CO)[C@@H](C)O)[C@@H](C)CC)C(=O)N[C@@H](C)C(=O)N[C@@H](CCSC)C(=O)N[C@@H](CC(=O)O)C(=O)N[C@@H](CCCNC(=N)N)C(=O)N[C@H](C(=O)N[C@@H](CCCCNC(=O)COCCOCCNC(=O)COCCOCCNC(=O)COCCOCCNC(=O)CC[C@H](NC(=O)CCCCCCCCCCCCCCC(=O)O)C(=O)O)C(=O)N[C@@H](CCC(N)=O)C(=O)N[C@@H](CCC(N)=O)C(=O)N[C@@H](CC(=O)O)C(=O)N[C@@H](Cc1ccccc1)C(=O)N[C@H](C(=O)N[C@@H](CC(N)=O)C(=O)N[C@@H](Cc1c[nH]c2ccccc12)C(=O)N[C@@H](CC(C)C)C(=O)N[C@@H](CC(C)C)C(=O)N[C@@H](C)C(=O)N[C@@H](CCC(N)=O)C(=O)N[C@@H](CCCNC(=N)N)C(N)=O)C(C)C)[C@@H](C)CC [AT383] (H-SGTFISDYSIAMDRIK([AEEA-AEEA-AEEA-γGlu-C16 diacid])QQDFVNWLLAQR-NH2; N-terminus assumed) | – | 100% | 100.0% | 1 nM | No Agonism | No antagonism | 0% | No antagonism | No antagonism
4 | CC[C@H](C)[C@H](NC(=O)[C@H](CO)NC(=O)[C@H](Cc1ccc(O)cc1)NC(=O)[C@H](CC(=O)O)NC(=O)[C@H](CO)NC(=O)[C@@H](NC(=O)[C@H](Cc1ccccc1)NC(=O)[C@@H](NC(=O)CNC(=O)[C@@H]1CCC(=O)N1)[C@@H](C)O)[C@@H](C)CC)C(=O)N[C@@H](C)C(=O)N[C@@H](CCSC)C(=O)N[C@@H](CC(=O)O)C(=O)N[C@@H](CCCNC(=N)N)C(=O)N[C@H](C(=O)N[C@@H](CCCCNC(=O)COCCOCCNC(=O)COCCOCCNC(=O)COCCOCCNC(=O)CC[C@H](NC(=O)CCCCCCCCCCCCCCCCC(=O)O)C(=O)O)C(=O)N[C@@H](CCC(N)=O)C(=O)N[C@@H](CCC(N)=O)C(=O)N[C@@H](CC(=O)O)C(=O)N[C@@H](Cc1ccccc1)C(=O)N[C@H](C(=O)N[C@@H](CC(N)=O)C(=O)N[C@@H](Cc1c[nH]c2ccccc12)C(=O)N[C@@H](CC(C)C)C(=O)N[C@@H](CC(C)C)C(=O)N[C@@H](C)C(=O)N[C@@H](CCC(N)=O)C(=O)N[C@@H](CCCNC(=N)N)C(N)=O)C(C)C)[C@@H](C)CC [AT382] ([pGlu]GTFISDYSIAMDRIK([AEEA-AEEA-AEEA-γGlu-C18 diacid])QQDFVNWLLAQR-NH2) | – | 100% | 100.0% | 2 nM | No Agonism | No antagonism | 0% | No antagonism | No antagonism
